Assays:
left stifle joint = test: Necropsy and histopathology of stifle joints; assay type: in vivo, dog; settings: for Average collagen score left leg (picosirius red): operated left stifle; for Average collagen score right leg (picosirius red): un-operated right stifle
Text: These findings were confirmed during necropsy.
It was characterized by plump, variably piled synoviocytes with slightly more prominent fibrillary projections into the synovial spaces as compared to the control right stifle joints. Some control un-operated right stifle joints also occasionally had minimal synovial hypertrophy/hyperplasia typified by slightly plump, variably piled synoviocytes, but lacked increased fibrillary projections.
Soft tissue mononuclear inflammation was seen as small collections of lymphocytes, macrophages, and/or plasma cells or increased numbers of diffusely scattered mononuclear cells. The inflammation was commonly seen in the synovial lining subjacent to the synoviocytes, or in soft tissues that remained attached to the bone/joint. The incidences and average severity grades were not remarkably different between left joint groups.
Bone remodeling with increased osteoblasts/osteoclasts was characterized by irregular areas of bone/callous formation. Some areas of bone remodeling had increased cellularity due to increased numbers of osteoblasts and osteoclasts that outlined bone.
Presence of cartilage on the operated sides was presumptively interpreted to represent areas of residual cartilage in the physis which had been shifted/transposed by the TPLO surgery, and/or new cartilage formation. The amount of cartilage in each section was subjectively graded using the H&E and toluidine blue stains. […] Any differences could also be influenced by differences in physeal cartilage amounts/extent of physeal closure between dogs, and by plane-of-section variabilities.
A collagen score for each of the stifle joint slides stained with picosirius red was assigned based on the qualitative estimate of collagen present on the slide. The average of the three slides per joint was recorded. An overall collagen score for the left and right stifle joints for each group was calculated by averaging the individual collagen scores. […] The average collagen scores of groups 1-4 for the operated left legs were slightly higher than the corresponding un-operated right leg group average collagen scores. Higher collagen in the operated legs seemed consistent with post-surgical healing processes.

[1] = test system: healthy dogs undergoing TPLO surgery; test: Algometer measurements on the surgical site; assay type: in vivo, dog
Procedure: The injection site of RTX or local anesthetic was evaluated by visual examination (normal, red, swollen) and palpation (no pain, mild, severe). The surgical site was evaluated by visual examination (normal, red, swollen) and with the aid of an algometer. With the dog in lateral recumbency, the tip of the algometer was placed on the surgical site and pressure was manually applied until the animal moved the leg. During the baseline data collection, several measurements were taken until 3 measurements were within ±1 Newton (N). The number recorded corresponded to the average of these 3 values. After surgery, the force was applied only once. Data were collected from both the left (treated) and the right (non-treated) hindlimbs.
Mean plus or minus the standard deviation (±SD) force in Newton was recorded at the pressure applied on the surgical incision when the subject moved the leg from the algometer. The left side was the treated stifle.

[2] = left stifle joint, Group 3 Local (50 μg), 4 examined

SMILES: C=C(C)[C@]12C[C@@H](C)[C@@]34O[C@](Cc5ccccc5)(O[C@@H]1[C@@H]3C=C(COC(=O)Cc1ccc(O)c(OC)c1)C[C@]1(O)C(=O)C(C)=C[C@@H]41)O2 [RTX, resiniferatoxin]
- Synovial hypertrophy/hyperplasia: Mild, number of dogs (left stifle joint; [2]): 3
- Synovial hypertrophy/hyperplasia: Minimal, number of dogs (left stifle joint; [2]): 0
- Synovial hypertrophy/hyperplasia: Moderate, number of dogs (left stifle joint; [2]): 1
- Synovial hypertrophy/hyperplasia: number of dogs with the finding (left stifle joint; [2]): (4)
- Average collagen score left leg (picosirius red) (left stifle joint; Group 1 High (25 μg)): 2.9
- Average collagen score left leg (picosirius red) (left stifle joint; Group 2 Low (6.25 μg)): 2.6
- Average collagen score left leg (picosirius red) (left stifle joint; Group 3 Local (50 μg)): 3.0
- Average collagen score right leg (picosirius red) (left stifle joint; Group 1 High (25 μg)): 2.3
- Average collagen score right leg (picosirius red) (left stifle joint; Group 2 Low (6.25 μg)): 2.3
- Average collagen score right leg (picosirius red) (left stifle joint; Group 3 Local (50 μg)): 2.4
- Algometer force on surgical site when the dog moved the leg (mean ± SD) ([1]; Baseline, L (treated) hindlimb, Group 1 High, 25 μg): 7.4 ± 3.1 Newton
- Algometer force on surgical site when the dog moved the leg (mean ± SD) ([1]; Baseline, L (treated) hindlimb, Group 2 Low, 6.25 μg): 6.2 ± 2.3 Newton
- Algometer force on surgical site when the dog moved the leg (mean ± SD) ([1]; Baseline, L (treated) hindlimb, Group 3 Local, 50 μg): 5.7 ± 2.5 Newton
- Algometer force on surgical site when the dog moved the leg (mean ± SD) ([1]; Baseline, R (non-treated) hindlimb, Group 1 High, 25 μg): 7.1 ± 3.7 Newton
- Algometer force on surgical site when the dog moved the leg (mean ± SD) ([1]; Baseline, R (non-treated) hindlimb, Group 2 Low, 6.25 μg): 7.0 ± 2.3 Newton
- Algometer force on surgical site when the dog moved the leg (mean ± SD) ([1]; Baseline, R (non-treated) hindlimb, Group 3 Local, 50 μg): 8.5 ± 2.4 Newton
- Algometer force on surgical site when the dog moved the leg (mean ± SD) ([1]; Day 1, L (treated) hindlimb, Group 1 High, 25 μg): 7.4 ± 5.9 Newton
- Algometer force on surgical site when the dog moved the leg (mean ± SD) ([1]; Day 1, L (treated) hindlimb, Group 2 Low, 6.25 μg): 5.0 ± 2.1 Newton
- Algometer force on surgical site when the dog moved the leg (mean ± SD) ([1]; Day 1, L (treated) hindlimb, Group 3 Local, 50 μg): 9.2 ± 2.1 Newton
- Algometer force on surgical site when the dog moved the leg (mean ± SD) ([1]; Day 1, R (non-treated) hindlimb, Group 1 High, 25 μg): 6.1 ± 2.3 Newton
- Algometer force on surgical site when the dog moved the leg (mean ± SD) ([1]; Day 1, R (non-treated) hindlimb, Group 2 Low, 6.25 μg): 3.8 ± 1.9 Newton
- Algometer force on surgical site when the dog moved the leg (mean ± SD) ([1]; Day 1, R (non-treated) hindlimb, Group 3 Local, 50 μg): 9.6 ± 6.3 Newton
- Algometer force on surgical site when the dog moved the leg (mean ± SD) ([1]; Day 2, L (treated) hindlimb, Group 1 High, 25 μg): 5.4 ± 3.3 Newton
- Algometer force on surgical site when the dog moved the leg (mean ± SD) ([1]; Day 2, L (treated) hindlimb, Group 2 Low, 6.25 μg): 5.0 ± 2.7 Newton
- Algometer force on surgical site when the dog moved the leg (mean ± SD) ([1]; Day 2, L (treated) hindlimb, Group 3 Local, 50 μg): 8.5 ± 1.5 Newton
- Algometer force on surgical site when the dog moved the leg (mean ± SD) ([1]; Day 2, R (non-treated) hindlimb, Group 1 High, 25 μg): 4.9 ± 2.1 Newton
- Algometer force on surgical site when the dog moved the leg (mean ± SD) ([1]; Day 2, R (non-treated) hindlimb, Group 2 Low, 6.25 μg): 3.7 ± 2.0 Newton
- Algometer force on surgical site when the dog moved the leg (mean ± SD) ([1]; Day 2, R (non-treated) hindlimb, Group 3 Local, 50 μg): 6.5 ± 3.5 Newton
- Algometer force on surgical site when the dog moved the leg (mean ± SD) ([1]; Day 3, L (treated) hindlimb, Group 1 High, 25 μg): 5.3 ± 1.5 Newton
- Algometer force on surgical site when the dog moved the leg (mean ± SD) ([1]; Day 3, L (treated) hindlimb, Group 2 Low, 6.25 μg): 5.9 ± 4.2 Newton
- Algometer force on surgical site when the dog moved the leg (mean ± SD) ([1]; Day 3, L (treated) hindlimb, Group 3 Local, 50 μg): 7.7 ± 2.0 Newton
- Algometer force on surgical site when the dog moved the leg (mean ± SD) ([1]; Day 3, R (non-treated) hindlimb, Group 1 High, 25 μg): 7.1 ± 1.8 Newton
- Algometer force on surgical site when the dog moved the leg (mean ± SD) ([1]; Day 3, R (non-treated) hindlimb, Group 2 Low, 6.25 μg): 6.3 ± 1.5 Newton
- Algometer force on surgical site when the dog moved the leg (mean ± SD) ([1]; Day 3, R (non-treated) hindlimb, Group 3 Local, 50 μg): 6.5 ± 3.4 Newton
- Algometer force on surgical site when the dog moved the leg (mean ± SD) ([1]; Day 14, L (treated) hindlimb, Group 1 High, 25 μg): 5.3 ± 3.9 Newton
- Algometer force on surgical site when the dog moved the leg (mean ± SD) ([1]; Day 14, L (treated) hindlimb, Group 2 Low, 6.25 μg): 2.9 ± 1.2 Newton
- Algometer force on surgical site when the dog moved the leg (mean ± SD) ([1]; Day 14, L (treated) hindlimb, Group 3 Local, 50 μg): 6.6 ± 4.2 Newton
- Algometer force on surgical site when the dog moved the leg (mean ± SD) ([1]; Day 14, R (non-treated) hindlimb, Group 1 High, 25 μg): 5.0 ± 2.3 Newton
- Algometer force on surgical site when the dog moved the leg (mean ± SD) ([1]; Day 14, R (non-treated) hindlimb, Group 2 Low, 6.25 μg): 5.2 ± 1.5 Newton
- Algometer force on surgical site when the dog moved the leg (mean ± SD) ([1]; Day 14, R (non-treated) hindlimb, Group 3 Local, 50 μg): 4.7 ± 3.5 Newton
- Algometer force on surgical site when the dog moved the leg (mean ± SD) ([1]; Day 28, L (treated) hindlimb, Group 1 High, 25 μg): 5.8 ± 2.4 Newton
- Algometer force on surgical site when the dog moved the leg (mean ± SD) ([1]; Day 28, L (treated) hindlimb, Group 2 Low, 6.25 μg): 4.5 ± 3.9 Newton
- Algometer force on surgical site when the dog moved the leg (mean ± SD) ([1]; Day 28, L (treated) hindlimb, Group 3 Local, 50 μg): 4.4 ± 2.6 Newton
- Algometer force on surgical site when the dog moved the leg (mean ± SD) ([1]; Day 28, R (non-treated) hindlimb, Group 1 High, 25 μg): 4.6 ± 3.5 Newton
- Algometer force on surgical site when the dog moved the leg (mean ± SD) ([1]; Day 28, R (non-treated) hindlimb, Group 2 Low, 6.25 μg): 2.7 ± 2.1 Newton
- Algometer force on surgical site when the dog moved the leg (mean ± SD) ([1]; Day 28, R (non-treated) hindlimb, Group 3 Local, 50 μg): 5.0 ± 1.9 Newton
- Algometer force on surgical site when the dog moved the leg (mean ± SD) ([1]; Day 56, L (treated) hindlimb, Group 1 High, 25 μg): 7.0 ± 3.1 Newton
- Algometer force on surgical site when the dog moved the leg (mean ± SD) ([1]; Day 56, L (treated) hindlimb, Group 2 Low, 6.25 μg): 4.9 ± 1.8 Newton
- Algometer force on surgical site when the dog moved the leg (mean ± SD) ([1]; Day 56, L (treated) hindlimb, Group 3 Local, 50 μg): 10.9 ± 8.7 Newton
- Algometer force on surgical site when the dog moved the leg (mean ± SD) ([1]; Day 56, R (non-treated) hindlimb, Group 1 High, 25 μg): 6.3 ± 1.2 Newton
- Algometer force on surgical site when the dog moved the leg (mean ± SD) ([1]; Day 56, R (non-treated) hindlimb, Group 2 Low, 6.25 μg): 5.7 ± 1.7 Newton
- Algometer force on surgical site when the dog moved the leg (mean ± SD) ([1]; Day 56, R (non-treated) hindlimb, Group 3 Local, 50 μg): 9.0 ± 4.6 Newton

Source: patent US20240261258A1, “Presurgical Perineural Administration of Resiniferatoxin For Reduction of Post-Operative Pain” (Sorrento Therapeutics, Inc., priority 2021, published 2024)
